From US4404230A, “4-Hydroxy-1,2-Benzisothiazol-3(2H)-one-1,1-dioxides and salts thereof” (priority 1980, dated 1983)

Tests used:
taste testers = experiment: Determination of the threshold concentration (sweet taste); format: in vivo
Description: Aqueous solutions having concentrations of 1:12,500, 1:25,000, 1:50,000, and 1:100,000 were prepared of test compounds A, B and C and of comparison compounds X, Y and Z, and each was evaluated at 5 taste testers according to the following scoring system: Very sweet (=3 points), medium sweet (=2 points), weakly sweet (=1 point), and not sweet (=0 point). The tests were carried out as described by H. G. Schutz and F. J. Pilgrim in Food Research 22, 206 (1957). The dilution perceptible as sweet was defined as having the concentration at which the average value of the evaluation points reached 1.0 or more.

[1] = Determination of water-solubility; format: physicochemical
[2] = Stability of the solid substance in daylight and at 60° C.; format: physicochemical; conditions: daylight and 60° C., absence and presence of light, 4 weeks
Description: For the stability test, substance B at a concentration of 1% was dissolved in 0.1 N hydrochloric acid and kept at room temperature for 27 days. […] The solid substance was furthermore tested in daylight and at 60° C. in the absence and in the presence of light for 4 weeks.

mice [3] = experiment: Effect on the duration of hexobarbital anesthesia in mice; format: in vivo, Chbb:NMRI-mice; conditions: 100 mg/kg p.o.
Description: According to Winter [Pharmacol. exp. Ther. 94, 7, (1948)], 100 mg/kg of substance B in a suspension of 1% tylose were administered perorally to 10 male Chbb:NMRI-mice (SPF) having a body weight of 20 to 26 gm. A control group received only the suspension agent. After 1 hour all animals were injected i.p. with 80 mg/kg of hexobarbital. The mice were put on a metal plate at 37° C. and the time from the beginning of the loss of the righting reflex until the recurrence of this reflex was measured as the duration of the anesthesia. This time difference was calculated in percent with regard to that of the control group.

mice [4] = experiment: Effect on maximum electroshock convulsions in mice; format: in vivo, Chbb:NMRI-mice; conditions: 200 mg/kg p.o.; for Number of protected animals: N = 10
Description: According to Swinyard, Brown and Goodman [J. Pharmacol. exp. Ther. 106, 319 (1952)], 200 mg/kg of substance B in aqua dist. solution were administered perorally to 10 male Chbb:NMRI-mice (SPF). After 30, 150 and 300 minutes tonic extensor spasms were induced by alternating current via head-electrodes (50 mA, 50 Hz, 2 sec. duration). Tonic extensor spasms of the extremities cannot be observed after treatment with substances having an anticonvulsive activity.

anesthetized cats = experiment: Effect on the blood circulation in anesthetized cats; format: in vivo; conditions: 10 mg/kg i.v.
Description: In 3 adult anesthetized cats the following parameters were measured:
The arterial blood pressure in the Arteria carotis by means of a Statham pressure transducer;
The heart rate by means of a Grass-tachograph;
The respiration rate by means of a Fleisch pneumotachograph;
10 mg/kg of substance B as a solution in aqua dist. were administered i.v.

thrombocyte aggregation = experiment: Effect on thrombocyte aggregation induced by collagen; format: cell-based; conditions: 1×10^-4 mol/liter, collagen-induced
Description: The thrombocyte aggregation was measured according to Born and Cross [J. Physiol. 170, 397 (1964)] in platelet-rich plasma obtained by centrifuging citrate blood. The change in the maximum aggregation rate in % compared with a control, and the percent change in the "optical density" were the measured parameters. The aggregation was induced by collagen.

eye of the rabbit = experiment: Local compatibility in the eye of the rabbit (mucosa compatibility); format: in vivo
Source text: Groups of 4 rabbits each of both sexes were given 1 drop of a 1% solution of substance B in aqua dist. into the conjunctival sack of the eye. […] The second eye of each animal served as control.

[5] = test system: Salmonella typhimurium TA 100; experiment: Test for mutagenic effects (AMES-system); format: cell-based
Description: (§1) Compound B was tested according to the AMES-system [Mutation Research 31, 347-364 (1975)] for mutagenic properties. In order to show the whole spectrum of induced molecular DNA-damage (base substitutions, frame-shift mutations, deletions) the auxotrophic bacterial strains Salmonella typhimurium TA 98, TA 100, TA 1535, TA 1537 and TA 1538 were used as genetic indicators.
(§2) The tests for all microorganisms were carried out such that the effect of the test compound on a microsomal enzyme system together with the corresponding co-factors could be tested, and furthermore to determine the effect on enzyme induction. The tests were performed without an activating system and in the presence of an activating system. For the in-vitro-activation S-9 supernatants (fractions of the endoplasmatic reticulum) of normal, i.e. not pretreated rats and of rats induced by aroclor 1254 (500 mg/kg) wer used. For the S-9 induced fraction, 3 different concentrations were tested.
(§3) Compound B was tested at concentrations of 0.25, 2.5, 5 and 10 mg/plate.

[6] = test system: Salmonella typhimurium TA 1535; experiment: Test for mutagenic effects (AMES-system); format: cell-based
Description: as §1, §2, §3

[7] = test system: Salmonella typhimurium TA 1537; experiment: Test for mutagenic effects (AMES-system); format: cell-based
Description: as §1, §2, §3

[8] = test system: Salmonella typhimurium TA 1538; experiment: Test for mutagenic effects (AMES-system); format: cell-based
Description: as §1, §2, §3

[9] = test system: Salmonella typhimurium TA 98; experiment: Test for mutagenic effects (AMES-system); format: cell-based
Description: as §1, §2, §3

[10] = test system: Salmonella typhimurium TA 98, TA 100, TA 1535, TA 1537 and TA 1538; experiment: Test for mutagenic effects (AMES-system), all strains together; format: cell-based
Description: as §1, §2, §3

[11] = vs values before administration, N = 3
[12] = 0.25, 2.5, 5 and 10 mg/plate, with and without activating system

O=C1NS(=O)(=O)c2cccc(O)c21.[Na]
Average value of evaluation points (taste testers; concentration 1:25000): 2.6 points | Average value of evaluation points (taste testers; concentration 1:50000): 1.2 points | Average value of evaluation points (taste testers; concentration 1:100000): 0.0 points | solubility [1]: > 1 gm/10 ml of water | water-solubility (in words) [1]: easily soluble in water | stability of solid substance [2]: No changes could be detected either | effect on duration of hexobarbital anesthesia (in words) (mice [3]): does not show any effect on the duration of hexobarbital anesthesia | Duration of anesthesia (mice [3]; hexobarbital 80 mg/kg i.p.): 15.65 ± 6.32 min | Duration of anesthesia, % of control (mice [3]; hexobarbital 80 mg/kg i.p.): 106% | anticonvulsive activity (in words) (mice [4]): does not show any anticonvulsive activity | Number of protected animals (mice [4]; 30 min): 0 | Number of protected animals (mice [4]; 150 min): 0 | Number of protected animals (mice [4]; 300 min): 0 | effect on arterial blood pressure, heart rate and respiration rate (in words) (anesthetized cats): does not show any effect on the arterial blood pressure, the heart rate and the respiration rate | Change in % blood pressure (anesthetized cats; [11]): +1% | Change in % heart rate (anesthetized cats; [11]): -1% | Change in % respiration rate (anesthetized cats; [11]): -2% | effect on thrombocyte aggregation (in words) (thrombocyte aggregation): does not show any effect on thrombocyte aggregation induced by collagen | change in the pupil (eye of the rabbit; 1% solution): no change in the pupil | irritation of the conjunctiva (eye of the rabbit; 1% solution): No irritation of the conjunctiva | change in the pupil (eye of the rabbit; 10%): no change in the pupil | irritation of the conjunctiva (eye of the rabbit; 10%): No irritation of the conjunctiva | incompatibility when dropped into the eye (in words) (eye of the rabbit; rabbit, in vivo): does not show any incompatibility | spontaneous mutation rate [5, 12]: did not lead to an increase in the spontaneous mutation rate | base substitutions ([5]; TA 100): does not induce base substitutions | spontaneous mutation rate [6, 12]: did not lead to an increase in the spontaneous mutation rate | base substitutions ([6]; TA 1535): does not induce base substitutions | spontaneous mutation rate [7, 12]: did not lead to an increase in the spontaneous mutation rate | frame-shift mutations ([7]; TA 1537): does not induce base substitutions (S. typhimurium TA 1535, TA 100) or frame-shift mutations | spontaneous mutation rate [8, 12]: did not lead to an increase in the spontaneous mutation rate | frame-shift mutations ([8]; TA 1538): does not induce base substitutions (S. typhimurium TA 1535, TA 100) or frame-shift mutations | spontaneous mutation rate [9, 12]: did not lead to an increase in the spontaneous mutation rate | frame-shift mutations ([9]; TA 98): does not induce base substitutions (S. typhimurium TA 1535, TA 100) or frame-shift mutations | effect on enzyme induction and the activating fraction upon the reversion rate [10]: No effect on enzyme induction and the activating fraction upon the reversion rate was detected | mutagenicity, overall [10]: not mutagenic | colonies counted on the test plates ([10]; each test strain): showed the normal spontaneous range for each test strain
